*1 amine or outer side, *2 acyl side, *3 side chain or, on linkers, in order; H or OH if unused. Where a SMILES comes first, the peptide text is derived from it. Bridges are numbered along the chain shown (N, C = ends). [ ]: non-standard residue; d: D form. X1 = O=C(O)CCCCCCCCCCCCCCCCCCC(=O)N[C@@H](CCCCNC(=O)COCCOCCNC(=O)COCCOCCNC(=O)CCC(=O)N(CCNC(=O)C[*:1])CCNC(=O)C[*:2])C(=O)O; Phe(2-F) = N[C@@H](Cc1ccccc1F)C(=O)O; αMeL = CC(C)C[C@](C)(N)C(=O)O; αMeK = C[C@](N)(CCCCN)C(=O)O; αMeS = C[C@](N)(CO)C(=O)O; Aib = CC(C)(N)C(=O)O
Tests used:
Type in all cases: cell-based
GCGR [1] = molecular target: T1, GCGR (Homo sapiens, UniProt P47871); assay: cAMP method (HTRF cAMP detection kit), HEK293/pGM-CREB-L-Luc/GCG pool; details: read-out: EC50 (pM) for each receptor GCGR
T1 construct: expressed in transfected cells
T1 sequence (P47871 26-477, species assumed): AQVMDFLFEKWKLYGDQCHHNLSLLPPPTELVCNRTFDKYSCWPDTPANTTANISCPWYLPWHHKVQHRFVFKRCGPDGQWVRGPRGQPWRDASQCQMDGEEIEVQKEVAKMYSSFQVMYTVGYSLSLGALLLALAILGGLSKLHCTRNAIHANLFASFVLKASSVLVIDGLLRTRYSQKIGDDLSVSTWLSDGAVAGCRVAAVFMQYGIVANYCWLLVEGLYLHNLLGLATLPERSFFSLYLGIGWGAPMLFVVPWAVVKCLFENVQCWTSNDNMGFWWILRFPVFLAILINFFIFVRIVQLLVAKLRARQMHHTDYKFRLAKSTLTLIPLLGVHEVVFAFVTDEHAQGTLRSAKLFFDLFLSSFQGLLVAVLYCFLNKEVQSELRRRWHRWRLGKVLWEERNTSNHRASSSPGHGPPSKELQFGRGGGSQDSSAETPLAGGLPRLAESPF
Description: (§1) 2. Insulinotropic analogues can bind to target receptors on the cell membrane, activate the receptors, and induce release. The activity of the test substance can be determined using the HTRF method with a cAMP detection kit. Therefore, the cAMP method can be used to detect the target peptide derivatives (or polypeptide derivatives, i.e., TG1-TG86) prepared in Example 1 and Example 2. […] The test cell line was selected, treated with cAMP-specific trypsin for digestion. 3 mL of serum-free DMEM culture medium was added, and the cells were pipetted, resuspended, and counted. 5 µL of IBMX (prepared with serum-free DMEM medium, 0.5 mM) and test cells (5 µL/7500 cells/well) were added in a 384-well plate sequentially. The plate was incubated at 37°C under 5% CO2 for 30 min, followed by the addition of cAMP-d2 (5 µL, 1x) and Anti-cAMP-Cryptate (5 µL, 1x). The mixture was kept at room temperature for 1 h, after which the HTRF value was measured using a chemiluminescent microplate reader, and the determination result was recorded. […] Table 4: EC50 values for target peptide derivatives

GCGR [2] = molecular target: T1, GCGR; assay: CreLuc method (CRE-luciferase reporter), 293HEK/pGM-CREB-L-Luc/GCGR pool; details: 6 h incubation, read-out: EC50 (pM) for each receptor GCGR
In short: (§2)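 Stable HEK293 pools co-expressing each receptor with a CRE-luciferase reporter were plated at 20,000 cells/well in freestyle medium and treated with compound dilution series for 6 h at 37 °C. Luminescence was read with ONE-GLO to derive EC50.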

GLP-1R = molecular target: T2, GLP-1R (Homo sapiens, UniProt P43220); assay: CreLuc method (CRE-luciferase reporter), HEK293/pGM-CREB-L-Luc/GLP-1R pool; details: 6 h incubation, read-out: EC50 (pM) for each receptor GLP-1R
T2 construct: expressed in transfected cells
T2 sequence (P43220 24-463, species assumed): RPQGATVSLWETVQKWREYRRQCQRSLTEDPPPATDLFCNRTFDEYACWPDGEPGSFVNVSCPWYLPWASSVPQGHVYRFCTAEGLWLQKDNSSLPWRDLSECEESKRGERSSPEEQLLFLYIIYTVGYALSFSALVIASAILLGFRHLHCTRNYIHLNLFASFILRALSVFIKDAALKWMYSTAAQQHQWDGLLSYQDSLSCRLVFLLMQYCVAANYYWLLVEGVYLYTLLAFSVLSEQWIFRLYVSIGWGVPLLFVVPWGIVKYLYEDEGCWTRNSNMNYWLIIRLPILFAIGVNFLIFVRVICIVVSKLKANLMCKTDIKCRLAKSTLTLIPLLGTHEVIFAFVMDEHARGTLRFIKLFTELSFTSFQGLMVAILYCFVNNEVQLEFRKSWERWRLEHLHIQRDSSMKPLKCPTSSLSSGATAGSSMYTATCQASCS
In short: as §2

GIPR [3] = molecular target: T3, GIPR (Homo sapiens, UniProt P48546); assay: CreLuc method (CRE-luciferase reporter), HEK293/pGM-CREB-L-Luc/GIPR pool; details: 6 h incubation, read-out: EC50 (pM) for each receptor GIPR
T3 construct: expressed in transfected cells
T3 sequence (P48546 22-466): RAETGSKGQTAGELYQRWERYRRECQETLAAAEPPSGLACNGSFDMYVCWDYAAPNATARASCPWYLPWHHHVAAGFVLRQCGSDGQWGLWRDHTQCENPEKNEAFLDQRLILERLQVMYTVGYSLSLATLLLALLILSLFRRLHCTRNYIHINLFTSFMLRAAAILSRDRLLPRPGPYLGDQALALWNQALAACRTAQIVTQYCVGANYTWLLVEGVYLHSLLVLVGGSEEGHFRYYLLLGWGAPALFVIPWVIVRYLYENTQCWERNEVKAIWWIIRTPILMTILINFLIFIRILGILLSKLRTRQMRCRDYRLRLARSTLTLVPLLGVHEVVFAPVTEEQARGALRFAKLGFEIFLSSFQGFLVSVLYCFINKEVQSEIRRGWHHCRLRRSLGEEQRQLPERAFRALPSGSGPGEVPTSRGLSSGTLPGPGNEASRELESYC
In short: as §2

GIPR [4] = molecular target: T3, GIPR; assay: cAMP method (HTRF cAMP detection kit), HEK293/pGM-CREB-L-Luc/GIP pool; details: read-out: EC50 (pM) for each receptor GIPR
Description: as §1

CC[C@H](C)[C@@H]1NC(=O)[C@H](Cc2ccccc2)NC(=O)[C@@H](NC(=O)C(C)(C)NC(=O)[C@H](CCC(N)=O)NC(=O)[C@H](C)NC(=O)[C@H](CCCCNC(C)=O)NC(=O)[C@](C)(CCCCN)NC(=O)[C@H](CC(=O)O)NC(=O)[C@H](CC(C)C)NC(=O)[C@](C)(CC(C)C)NC(=O)[C@@H](NC(=O)[C@](C)(CO)NC(=O)[C@H](Cc2ccc(O)cc2)NC(=O)[C@H](CC(=O)O)NC(=O)[C@H](CO)NC(=O)[C@@H](NC(=O)[C@H](Cc2ccccc2F)NC(=O)[C@@H](NC(=O)CNC(=O)[C@H](CCC(N)=O)NC(=O)C(C)(C)NC(=O)[C@@H](N)Cc2ccc(O)cc2)[C@@H](C)O)[C@@H](C)O)[C@@H](C)CC)CSCC(=O)NCCN(C(=O)CCC(=O)NCCOCCOCC(=O)NCCOCCOCC(=O)NCCCC[C@H](NC(=O)CCCCCCCCCCCCCCCCCCC(=O)O)C(=O)O)CCNC(=O)CSC[C@@H](C(=O)NCC(=O)NCC(=O)N2CCC[C@H]2C(=O)N[C@@H](CO)C(=O)N[C@@H](CO)C(=O)NCC(=O)N[C@@H](C)C(=O)N2CCC[C@H]2C(=O)N2CCC[C@H]2C(=O)N2CCC[C@H]2C(=O)N[C@@H](CO)C(N)=O)NC(=O)[C@H](CC(C)C)NC(=O)[C@H](CC(C)C)NC(=O)[C@H](Cc2ccc(O)cc2)NC(=O)[C@H](CCC(=O)O)NC1=O [TG61]
EC50 (GCGR [1]): 12.4 pM
EC50 (GCGR [2]): 268 pM
EC50 (GLP-1R): 264 pM
EC50 (GIPR [3]): 12.6 pM
EC50 (GIPR [4]): 5.9 pM

CC[C@H](C)[C@H](NC(=O)[C@H](Cc1ccccc1)NC(=O)[C@H](C)NC(=O)[C@@H]1CSCC(=O)NCCN(C(=O)CCC(=O)NCCOCCOCC(=O)NCCOCCOCC(=O)NCCCC[C@H](NC(=O)CCCCCCCCCCCCCCCCCCC(=O)O)C(=O)O)CCNC(=O)CSC[C@H](NC(=O)[C@H](CCCCN)NC(=O)[C@H](CC(=O)O)NC(=O)[C@H](CC(C)C)NC(=O)[C@](C)(CC(C)C)NC(=O)[C@@H](NC(=O)[C@H](CO)NC(=O)[C@H](Cc2ccc(O)cc2)NC(=O)[C@H](CC(=O)O)NC(=O)[C@H](CO)NC(=O)[C@@H](NC(=O)[C@H](Cc2ccccc2F)NC(=O)[C@@H](NC(=O)CNC(=O)[C@H](CCC(N)=O)NC(=O)C(C)(C)NC(=O)[C@@H](N)Cc2ccc(O)cc2)[C@@H](C)O)[C@@H](C)O)[C@@H](C)CC)C(=O)N[C@@H](C)C(=O)N[C@@H](CCC(N)=O)C(=O)N1)C(=O)N[C@@H](CCC(=O)O)C(=O)N[C@@H](Cc1ccc(O)cc1)C(=O)N[C@@H](CC(C)C)C(=O)N[C@@H](CC(C)C)C(=O)N[C@@H](C)C(=O)NCC(=O)NCC(=O)N1CCC[C@H]1C(=O)N[C@@H](CO)C(=O)N[C@@H](CO)C(=O)NCC(=O)N[C@@H](C)C(=O)N1CCC[C@H]1C(=O)N1CCC[C@H]1C(=O)N1CCC[C@H]1C(=O)N[C@@H](CO)C(N)=O [TG59] (H-Y[Aib]QGT[Phe(2-F)]TSDYSI[αMeL]LDKCAQCAFIEYLLAGGPSSGAPPPS-NH2; linker 17-20 via X1)
EC50 (GCGR [1]): 9.1 pM
EC50 (GCGR [2]): 392 pM
EC50 (GLP-1R): 51.8 pM
EC50 (GIPR [3]): 30.7 pM
EC50 (GIPR [4]): 3.9 pM

CC[C@H](C)[C@H](NC(=O)[C@H](Cc1ccccc1)NC(=O)[C@H](C)NC(=O)[C@@H]1CSCC(=O)NCCN(C(=O)CCC(=O)NCCOCCOCC(=O)NCCOCCOCC(=O)NCCCC[C@H](NC(=O)CCCCCCCCCCCCCCCCCCC(=O)O)C(=O)O)CCNC(=O)CSC[C@H](NC(=O)[C@](C)(CCCCN)NC(=O)[C@H](CC(=O)O)NC(=O)[C@H](CC(C)C)NC(=O)[C@](C)(CC(C)C)NC(=O)[C@@H](NC(=O)[C@](C)(CO)NC(=O)[C@H](Cc2ccc(O)cc2)NC(=O)[C@H](CC(=O)O)NC(=O)[C@H](CO)NC(=O)[C@@H](NC(=O)[C@H](Cc2ccccc2F)NC(=O)[C@@H](NC(=O)CNC(=O)[C@H](CCC(N)=O)NC(=O)C(C)(C)NC(=O)[C@@H](N)Cc2ccc(O)cc2)[C@@H](C)O)[C@@H](C)O)[C@@H](C)CC)C(=O)N[C@@H](C)C(=O)N[C@@H](CCC(N)=O)C(=O)N1)C(=O)N[C@@H](CCC(=O)O)C(=O)N[C@@H](Cc1ccc(O)cc1)C(=O)N[C@@H](CC(C)C)C(=O)N[C@@H](CC(C)C)C(=O)N[C@@H](C)C(=O)NCC(=O)NCC(=O)N1CCC[C@H]1C(=O)N[C@@H](CO)C(=O)N[C@@H](CO)C(=O)NCC(=O)N[C@@H](C)C(=O)N1CCC[C@H]1C(=O)N1CCC[C@H]1C(=O)N1CCC[C@H]1C(=O)N[C@@H](CO)C(N)=O [TG62] (H-Y[Aib]QGT[Phe(2-F)]TSDY[αMeS]I[αMeL]LD[αMeK]CAQCAFIEYLLAGGPSSGAPPPS-NH2; linker 17-20 via X1)
EC50 (GCGR [1]): 62.2 pM
EC50 (GCGR [2]): 783 pM
EC50 (GLP-1R): 371 pM
EC50 (GIPR [3]): 27.9 pM
EC50 (GIPR [4]): 6 pM
